From paper PMC5810286, “Niemann-Pick C2 Proteins: A New Function for an Old Family” (Frontiers in Physiology, 2018)
“Also recorded” adds a separate entry of the source.

Columns and labels:
[1] = target: T1, HarmNPC2-1 (Helicoverpa armigera, UniProt A0A2W1BYA3); test: Competitive binding experiments (displacement of 1-NPN); details: for displacing the fluorescent probe from the complex: concentrations up to 16 μM, protein and 1-NPN both 2 μM; for binding / affinity for HarmNPC2-1 (in words): competitive binding with 1-NPN, ligand 0.5–16 μM
T1 sequence (A0A2W1BYA3 entry or part of it): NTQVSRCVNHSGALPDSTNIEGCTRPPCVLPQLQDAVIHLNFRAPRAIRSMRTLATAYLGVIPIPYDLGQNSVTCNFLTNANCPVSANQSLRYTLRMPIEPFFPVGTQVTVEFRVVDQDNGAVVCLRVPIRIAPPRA
Procedure: (§1) Emission fluorescence spectra were recorded on a Horiba scientific Fluoromax-4 spectrofluorometer at room temperature in a right-angle configuration, with a 1 cm light path quartz cuvette and 5 nm slits for both excitation and emission. Proteins were dissolved in 50 mM Tris–HCl buffer, pH 7.4, while ligands were added as 1 mM methanol solutions.
The probe was excited at 337 nm and emission spectra were recorded between 380 and 450 nm. […] Data obtained with 1-NPN were analyzed with Prism software.

[2] = target: T1, HarmNPC2-1; test: Quenching of intrinsic tryptophan fluorescence; assay type: binding; details: Figure 2C
Procedure: as §1

CCCCCCCC(=O)O [octanoic acid]
displacing the fluorescent probe from the complex [1]: ineffective

O=c1c(O)c(-c2ccc(O)c(O)c2)oc2cc(O)cc(O)c12 [quercetin]
quenching of intrinsic tryptophan fluorescence [2]: quenching of intrinsic tryptophan fluorescence in a dose-dependent fashion

COc1ccc([C@@H]2CC(=O)c3c(O)cc(O[C@@H]4O[C@H](CO[C@@H]5O[C@@H](C)[C@H](O)[C@@H](O)[C@H]5O)[C@@H](O)[C@H](O)[C@H]4O)cc3O2)cc1O [hesperidin]
binding / affinity for HarmNPC2-1 (in words) [1]: the worst

CCCCC(C)O (centres unmarked) [2-hexanol]
displacing the fluorescent probe from the complex [1]: ineffective

CC(C)=CCC[C@@H](C)CC=O (racemic) [citronellal]
displacing the fluorescent probe from the complex [1]: ineffective

CCCC(O)CC (centres unmarked) [3-hexanol]
displacing the fluorescent probe from the complex [1]: ineffective

O=Cc1ccccc1O [2-hydroxy benzaldehyde]
displacing the fluorescent probe from the complex [1]: ineffective

CC/C=C\CC1C(=O)CCC1CC(=O)OC (centres unmarked) [methyl jasmonate]
displacing the fluorescent probe from the complex [1]: ineffective

CC(=O)/C=C/C1=C(C)CCCC1(C)C [β-ionone]
displacing the fluorescent probe from the complex [1]: ineffective

c1ccc2[nH]ccc2c1 [indole]
displacing the fluorescent probe from the complex [1]: ineffective

Cc1cc2c(C(C)C)c(O)c(O)c(C=O)c2c(O)c1-c1c(C)cc2c(C(C)C)c(O)c(O)c(C=O)c2c1O [gossypol]
binding / affinity for HarmNPC2-1 (in words) [1]: best ligand; also recorded: the best
quenching of intrinsic tryptophan fluorescence [2]: quenching of intrinsic tryptophan fluorescence in a dose-dependent fashion

CCCC/C=C\CCCCCCCCCCO [(Z)-11-hexadecenol]
displacing the fluorescent probe from the complex [1]: ineffective

CCCCCCCCCC(=O)O [decanoic acid]
displacing the fluorescent probe from the complex [1]: ineffective

CCCCCCCO [1-heptanol]
displacing the fluorescent probe from the complex [1]: ineffective

CCCC=CC=CC=O [2,4-octadienal]
displacing the fluorescent probe from the complex [1]: ineffective

CC1=C(C=O)C(C)(C)CC=C1 [safranal]
displacing the fluorescent probe from the complex [1]: ineffective

CC(C)=CCC/C(C)=C/CC/C(C)=C/CO [farnesol]
displacing the fluorescent probe from the complex [1]: ineffective

O=CCc1ccccc1 [2-phenylacetaldehyde]
displacing the fluorescent probe from the complex [1]: ineffective

COC(=O)CC(C)CCC=C(C)C (centres unmarked) [citronellic acid methyl ester]
displacing the fluorescent probe from the complex [1]: ineffective

Cc1ccc(C=O)cc1 [4-methyl benzaldehyde]
displacing the fluorescent probe from the complex [1]: ineffective

O=Cc1ccccc1 [benzaldehyde]
displacing the fluorescent probe from the complex [1]: ineffective

COc1cc(/C=C/C=O)ccc1O [coniferyl aldehyde]
binding / affinity for HarmNPC2-1 (in words) [1]: moderate binding

C=CCc1ccc(O)c(OC)c1 [eugenol]
binding / affinity for HarmNPC2-1 (in words) [1]: failed to bind
displacing the fluorescent probe from the complex [1]: ineffective

O=C/C=C/c1ccccc1 [cinnamaldehyde]
binding / affinity for HarmNPC2-1 (in words) [1]: failed to bind
displacing the fluorescent probe from the complex [1]: ineffective

CCCCCCCCCC=O [decanal]
displacing the fluorescent probe from the complex [1]: ineffective

CCCCCCCC=O [octanal]
displacing the fluorescent probe from the complex [1]: ineffective

C[C@]12CC[C@@H]3c4ccc(O)cc4CC[C@H]3[C@@H]1CC[C@@H]2O [β-estradiol]
displacing the fluorescent probe from the complex [1]: ineffective

COc1cc(CNC(=O)CCCC/C=C/C(C)C)ccc1O [capsaicin]
binding / affinity for HarmNPC2-1 (in words) [1]: failed to bind
displacing the fluorescent probe from the complex [1]: ineffective

COc1cc(C=O)ccc1O [vanillin]
binding / affinity for HarmNPC2-1 (in words) [1]: failed to bind
displacing the fluorescent probe from the complex [1]: ineffective

CC/C=C\CCO [Z3-hexen-1-ol]
displacing the fluorescent probe from the complex [1]: ineffective

CCCC/C=C\CCCCCCCCCC=O [(Z)-11-hexadecenal]
displacing the fluorescent probe from the complex [1]: ineffective

COc1ccc(C=O)cc1 [4-methoxy benzaldehyde]
displacing the fluorescent probe from the complex [1]: ineffective

CCCCCC/C=C\CCCCCCCC=O [(Z)-9-hexadecenal]
displacing the fluorescent probe from the complex [1]: ineffective

C=C(C)C1CC=C(C)C(=O)C1 (centres unmarked) [carvone]
displacing the fluorescent probe from the complex [1]: ineffective

OCc1ccc2c(c1)OCO2 [piperonyl alcohol]
binding / affinity for HarmNPC2-1 (in words) [1]: failed to bind
displacing the fluorescent probe from the complex [1]: ineffective

COC(=O)C=Cc1ccccc1 [methyl cinnamate]
displacing the fluorescent probe from the complex [1]: ineffective

C=CC(O)CCCCC (centres unmarked) [1-octen-3-ol]
displacing the fluorescent probe from the complex [1]: ineffective

CCCC/C=C\CCCCCCCCCCOC(C)=O [(Z)-11-hexadecenyl acetate]
displacing the fluorescent probe from the complex [1]: ineffective
